Measurements taken from patent US20130035390A1, “TREATMENT OF MULTIPLE SCLEROSIS” (Ramot at Tel-Aviv University Ltd., priority 2010, published 2013).

Assays:
EAE mice = assay: Clinical signs of MOG-induced EAE, late treatment from day 9; type: in vivo, C57bl/6 mice; conditions: for percent of the maximal response: score difference relative to control score 2.4
Procedure: Eight-week-old female C57bl/6 mice were purchased from Harlan. The mice were housed under standard conditions in top filtered cages. Mice were fed a regular diet and given acidified water without antibiotics.
Disease was induced by immunization with the peptide encompassing amino acids 35-55 of rat MOG synthesis (Anaspec, Fremont, Calif.). Mice were injected subcutaneously (s.c.) at the flank, with a 200 μl emulsion containing 300 μg of MOG in complete Freund's adjuvant (CFA) enriched with 500 μg Mycobacterium tuberculosis H37Ra (Difco Laboratories, Detroit, Mich.). Pertussis toxin (List biological laboratories, California, USA), […], was injected intra-peritoneally (i.p.) immediately after the MOG injection and then 48 h later. Mice were examined daily. EAE was scored as follows: 0, no abnormality; 1, mild limp tail weakness (floppy tail); 2, tail paralysis; 3, tail paralysis and hind leg paresis; 4, hind leg paralysis or mild forelimb weakness; 5, quadriplegia or moribund state; 6, death.
Briefly, FTS (as powder) was diluted in chloroform (35.8 mg/ml of FTS=0.1 M) and kept in aliquots. The content (280 μl) of one aliquot was evaporated under nitrogen and then dissolved in 40 μl absolute ethanol and 15 μl NaOH; 2.5 ml of PBS was subsequently added. Each mouse received 0.1 ml of this solution daily (0.4 mg/mouse which on a per unit weight basis equates to 20 mg/kg) intraperitoneally (i.p.), starting from day 9 of disease induction, just before the clinical onset of paralysis.
EAE was induced in C57bl/6 mice with MOG and drug treatment started on day 9 of disease induction. The animals were divided into four (4) groups.

Ras = assay: Western blotting of splenocyte lysates: Ras; type: in vivo, mice; conditions: FTS 20 mg/kg/day i.p., GA 15 mg/kg/day s.c.
Description: (§1) On day 16 post EAE-induction, the brains and splenocytes of the mice (n=4 per each group) were homogenized and their lysates were subjected to sodium dodecyl sulfate-olyacrylamide gel electrophoresis followed by western blotting, as described (Goldberg and Kloog, 2006), with one of the following antibodies: pan-RAS (Ab-3; Calbiochem, San Diego, Calif.), anti-CD3 Ab (AbD serotec, Oxford, UK), anti-ERK (Santa Cruz Biotechnology, CA. USA), anti phospho-ERK (Sigma, USA), anti-tubulin Ab and anti-Foxp3 Ab (eBioScience, San Diego, Calif.). Protein bands were visualized by enhanced chemiluminescence (ECL) kit (Amersham Pharmacia Biotech, Arlington Heights, Ill.) and quantified by densitometry with Image EZQuant-Gel software (Copyright©2005, EZQuant Ltd). Lysates were used to determine Ras-GTP by the glutathione S-transferase (GST)-Ras-binding domain pulldown assay, and this was followed by western blotting with anti pan-Ras Ab.

[1] = test system: lymphocytes from the spleens of EAE mice; assay: Ex vivo BrdU proliferation response of EAE splenocytes to antigens and mitogens; type: cell-based; conditions: in vivo FTS 20 mg/kg/day i.p., GA 15 mg/kg/day s.c.
Procedure: Pooled single cell suspension of spleens were obtained on […] post-EAE induction and assayed in vitro for their response to antigens and mitogens ([…], lipopolysacharide—LPS, and concanavalin A—ConA) by a proliferation assay. The assay was carried out by plating in each microculture well 2×10^4 cells in 0.1 ml of proliferation medium containing optimal concentration of antigens as follows: 25 μg/ml MOG, 50 μg/ml MOG, 20 μg/ml LPS or 1 μg/ml of ConA. The experiments were performed in triplicate in 96-well, flat-bottom, microtiter plates (Costar, Cambridge, USA). Cultures were incubated for 72 h in humidified atmosphere of 95% air and 5% CO2 at 37° C. Cell proliferation was determined by Colorimetric Bromodeoxyuridine (BrdU) Cell Proliferation kit (Calbiochem, Darmstadt, Germany) following manufacturer's instructions. In brief, 20 μl of BrdU labeling solution diluted 1:2000 in culture medium were added to each well for the last 18 h of culture. After removing the medium, cells were fixed, and anti-BrdU peroxidase working solution was added to each well and incubated for one (1) hour at room temperature. Following several washes, substrate solution was added, color was developed, and absorbance was measured with a microplate reader at 450 nm. The stimulation index (S.I.) was calculated as follows: the mean absorbance of cells culture in the presence of antigen divided by the mean absorbance of cells in the absence of antigen.
Lymphocytes were obtained from the spleens of mice on day 16 post immunization with MOG and subjected to ex vivo BrdU incorporation proliferation assays. […] The cells, obtained from the four groups described above, were stimulated with various mitogens ex vivo for 48 h.

phospho-Erk = assay: Western blotting of splenocyte lysates: phospho-Erk; type: in vivo, mice; conditions: FTS 20 mg/kg/day i.p., GA 15 mg/kg/day s.c.
Description: as §1

Foxp3 = assay: Western blotting of splenocyte lysates: Foxp3; type: in vivo, mice; conditions: day 17 post EAE-induction; FTS 20 mg/kg/day i.p., GA 15 mg/kg/day s.c.
Description: as §1

[2] = test system: infiltration and demyelination in the spinal cords of EAE mice; assay: Histology of lumbar spinal cord (H&E, LFB); type: in vivo, C57bl/6 mice; conditions: day 16 post EAE-induction; FTS 20 mg/kg/day i.p., GA 15 mg/kg/day s.c.
Description: The lumbar part of the mice's spinal cord (n=8 mice for each group) was fixed in 4% paraformaldehyde (Electric Microscopy Science, PA, USA) and embedded in paraffin and cut in 4-μm-thick axial sections. Sections were stained with hematoxylin and eosin (H&E) and luxol fast blue (LFB) and then mounted in histomount medium (Invitrogen Corporation, CA, USA). Images were examined under a light microscope and captured with a NikonDS-5Mcamera (NikonInstech, Tokyo, Japan). Quantification of the inflammation and demyelination was conducted as previously described (Mi, et al., 2007). Briefly, to quantify inflammation H&E-stained nuclei were imaged, counted and percentage of stained cells per field were calculated. Similarly the percentage of regions with demyelination per field was estimated by counting the LFB-stained images. Imaging was aided by the use of Image-Pro Plus 5.1 software (MediaCybernetics, Silver, Spring, Md.).

[3] = test system: EAE lesions and blood-brain barrier disruption in the spinal cord; assay: MR imaging of spinal cord (L1-S3) of EAE mice, T2-map and Gd-DTPA T1-weighted; type: in vivo, C57bl/6 mice; conditions: day 14 post EAE-induction; FTS 20 mg/kg/day i.p., GA 15 mg/kg/day s.c.; FIG. 2C
Procedure: The treatment effect was evaluated by MRI experiments which were conducted on day 14 after EAE-induction. […] During the MRI scanning, mice were anesthetized with isofluorane (3% for induction, 1-2% for maintenance) mixed with compressed air (1 l/min) delivered through a nasal mask. Once anesthetized, the animals were placed in a body-holder to assure reproducible positioning inside the magnet. Respiration rate was monitored and maintained throughout the experimental period at 60-80 breaths/min. MRI experiments were performed on a 7T Bruker scanner (70/30 USR Bruker BioSpec, Germany) equipped with a gradient coil system capable of producing pulse gradients of up to 400 mT/m in each of the three directions. […]
T2-map MRI was used to deliberate the EAE lesions (demyelination) in the mice's spinal cords. Lesion volume was calculated from the T2-map MR images using the MATLAB® image processing toolbox. […] From that value was then subtracted the value of a normal appearing parallel tissue in the same slice which was measured in the same way as described above. […]
The gadolinium enhancement obtained from T1-weighted MRI reflects the infusate distribution in the mice's blood-brain barrier within the spinal cord. Thus, the volume (in mm^3) of infusate distribution was calculated from the T1-weighted MRI. […] The volume in the regions of interest was counted and accumulated for each mouse.

[4] = 0-6 scale, FTS 20 mg/kg/day i.p., GA 100 mg/kg/day s.c., daily from day 9, FIG. 1A
[5] = Example II: 0-6 scale, FTS 60 mg/kg/day p.o., GA 15 mg/kg/day s.c., FIG. 7A
[6] = Example II: FTS 60 mg/kg/day p.o., GA 15 mg/kg/day s.c., daily from day 9
[7] = FTS 20 mg/kg/day i.p., GA 15 mg/kg/day s.c.
[8] = FTS 20 mg/kg/day i.p., GA 15 mg/kg/day s.c., daily from day 9, four experiments
[9] = FTS 20 mg/kg/day i.p., GA 100 mg/kg/day s.c., daily from day 9, three experiments

Row | Compound | maximal average clinical score (EAE mice; [4]) | maximal average clinical score (EAE mice; [5]) | animals that developed clinical signs of EAE (EAE mice; [6]) [%] | clinical score as control score (2.4) minus treated score (EAE mice; [7]) | animals that developed clinical signs of EAE (EAE mice; [8]) [%] | animals that developed clinical signs of EAE (EAE mice; [9]) [%] | percent of the maximal response (EAE mice; [7]) [%] | decrease in Ras level in splenocytes vs. control (Ras) | decrease in lymphocyte proliferation vs. control ([1]; stimulated with 25 μg/ml MOG) | decrease in lymphocyte proliferation vs. control ([1]; stimulated with 50 μg/ml MOG) | decrease in phospho-Erk level in splenocytes vs. control (phospho-Erk) | increase of Foxp3 level in splenocytes vs. control (Foxp3) | decrease in regions of demyelination (LFB) vs. control [2] | reduction of regions with inflammatory infiltrates (H&E nuclei counts) vs. control [2] | maximal average clinical score (EAE mice; 0-6 scale, FTS 20 mg/kg/day i.p., GA 15 mg/kg/day s.c., daily from day 9, FIG. 1B) | maximal average clinical score (EAE mice; Example III: 0-6 scale, FTS 40 mg/kg/day s.c. (dissolved in GA in the combination), GA 15 mg/kg/day s.c., FIG. 7B) | animals that developed clinical signs of EAE (EAE mice; Example III: FTS 40 mg/kg/day s.c. (dissolved in GA in the combination), GA 15 mg/kg/day s.c., daily from day 9) [%] | decrease in total volume of T2-map lesions per mouse vs. control [3] | decrease in phospho-Erk level in splenocytes vs. GA alone (phospho-Erk)
1 | L-glutamic acid polymer with L-alanine, L-lysine and L-tyrosine, acetate (salt) [GA] | 1.4±0.43 | 1.3±0.213 | 70 | 0.02±0.05 | 77.5 | 70.3 | 2 | does not reduce significantly | 43.19%±6.35% | 41.22%±6.12% | does not reduce significantly | No significant elevation | 48.97%±6.78% | 33.12%±6.98% | – | – | – | – | –
2 | CC(C)=CCC/C(C)=C/CC/C(C)=C/CSc1ccccc1C(=O)O [FTS, S-trans,trans-farnesylthiosalicylic acid] | 1.07±0.6 | 1±0.33 | 60 | 0.25±0.11 | 82.5 | 60.7 | 25 | – | 17.85%±5.34% | 29.9%±9.18% | 50.18%±9.1% | No significant elevation | 59.18±10.6% | 28.44%±11.2% | 2.15±0.45 | 1.72±0.45 | 90 | 30.1%±7% | 51.38%±5.6%
